From patent publication US10849907B2, “Imidazopyridine derivatives and the use thereof as medicament” (Boehringer Ingelheim International GmbH, priority 2017, dated 2020)

Key:
human MDR1 (P-gp) = target: T1, human MDR1 (P-gp) (Homo sapiens, UniProt P08183); experiment: MDCK assay MDR-1 (p-GP): permeability across MDCK-MDR1 monolayers; assay type: in vitro ADME; conditions: for Papp A→B: MDCK-MDR1 monolayers, apical-to-basal, pH 7.4, 1 or 10 μM; for efflux ratio: pH 7.4, MDCK-MDR1, Papp (b-a) divided by Papp (a-b)
T1 construct: expressed in transfected cells; host or cells: MDCKII (Madin-Darby canine kidney) cells
T1 sequence (P08183 whole entry): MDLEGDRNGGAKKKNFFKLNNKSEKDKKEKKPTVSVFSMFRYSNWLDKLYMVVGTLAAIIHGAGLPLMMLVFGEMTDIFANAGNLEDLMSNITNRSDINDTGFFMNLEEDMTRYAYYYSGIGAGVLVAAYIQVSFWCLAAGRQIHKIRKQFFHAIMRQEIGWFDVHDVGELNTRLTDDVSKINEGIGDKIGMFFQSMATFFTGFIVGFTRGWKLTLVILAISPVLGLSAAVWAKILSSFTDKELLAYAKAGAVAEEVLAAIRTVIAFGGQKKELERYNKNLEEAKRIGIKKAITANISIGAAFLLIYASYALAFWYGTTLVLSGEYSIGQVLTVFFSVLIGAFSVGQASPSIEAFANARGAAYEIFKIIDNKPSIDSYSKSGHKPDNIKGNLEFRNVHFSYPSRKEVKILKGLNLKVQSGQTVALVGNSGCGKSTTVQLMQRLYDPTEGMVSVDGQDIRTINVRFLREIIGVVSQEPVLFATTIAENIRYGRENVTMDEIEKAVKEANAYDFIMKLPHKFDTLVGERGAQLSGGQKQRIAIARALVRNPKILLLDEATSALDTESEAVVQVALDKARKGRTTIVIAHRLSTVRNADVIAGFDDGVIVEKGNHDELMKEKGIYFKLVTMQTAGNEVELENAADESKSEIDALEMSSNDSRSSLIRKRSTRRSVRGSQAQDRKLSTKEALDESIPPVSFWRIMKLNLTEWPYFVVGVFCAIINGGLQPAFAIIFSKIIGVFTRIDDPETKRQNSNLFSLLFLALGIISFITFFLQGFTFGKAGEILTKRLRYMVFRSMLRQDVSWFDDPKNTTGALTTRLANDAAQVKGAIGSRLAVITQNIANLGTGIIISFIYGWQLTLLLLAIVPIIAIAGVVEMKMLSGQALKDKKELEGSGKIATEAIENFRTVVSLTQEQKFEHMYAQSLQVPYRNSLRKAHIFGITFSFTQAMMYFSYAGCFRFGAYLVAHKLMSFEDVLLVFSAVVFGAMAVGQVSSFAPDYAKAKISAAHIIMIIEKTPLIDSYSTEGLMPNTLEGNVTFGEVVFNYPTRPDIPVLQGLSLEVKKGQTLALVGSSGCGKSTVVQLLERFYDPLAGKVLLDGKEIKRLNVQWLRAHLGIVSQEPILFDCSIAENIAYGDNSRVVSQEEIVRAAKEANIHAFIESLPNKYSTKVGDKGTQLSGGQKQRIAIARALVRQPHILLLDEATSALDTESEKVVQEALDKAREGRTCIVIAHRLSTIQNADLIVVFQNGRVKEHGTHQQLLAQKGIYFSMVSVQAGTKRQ
Method: (§1) The MDCK assays provide information on the potential of a compound to pass the blood brain barrier. Permeability measurements across polarized, confluent MDCK-MDR1 cell monolayers grown on permeable filter supports are used as an in vitro absorption model: apparent permeability coefficients (PE) of the compounds across the MDCK-MDR1 cell monolayers are measured (pH 7.4, 37° C.) in apical-to-basal (AB) and basal-to-apical (BA) transport direction. The AB permeability (PEAB) represents drug absorption from the blood into the brain and the BA permeability (PEBA) drug efflux from the brain back into the blood via both, passive permeability as well as active transport mechanisms mediated by efflux and uptake transporters that are expressed on the MDCK-MDR1 cells, predominantly by the overexpressed human MDR1. Identical or similar permeabilities in both transport directions indicate passive permeation, vectorial permeability points to additional active transport mechanisms. Higher PEBA than PEAB (PEBA/PEAB >5) indicates the involvement of active efflux mediated by MDR1, which might compromise the goal to achieve sufficient brain exposure. Therefore, this assay provides valuable support for selection of compounds applicable for further in vivo testing. High permeability not limited by efflux at the blood brain barrier is a favourable characteristic for compounds that are to be used for drugs acting primarily in the CNS. Similar concepts are applicable to the MDCK BCRP assay and its interpretation; consequently, to ensure high permeability at the blood brain barrier, it is highly preferred to minimize the efflux (efflux <5) at both MDR1 and BCRP transporters.
Apparent permeability coefficients (Papp) of the compounds across the MDCK-MDR1 monolayers (MDCKII cells transfected with human MDR1 cDNA expression plasmid) are measured in apical-to-basal (AB) and basal-to-apical (BA) direction.
(§2) MDCK-MDR1 cells (6×10^5 cells/cm^2) are seeded on filter inserts (Corning, Transwell, polycarbonate, 0.4 μm pore size) and cultured for 9 to 10 days. Compounds dissolved in DMSO stock solution (1-20 mM) are diluted with HTP-4 aqueous buffer (128.13 mM NaCl, 5.36 mM KCl, 1 mM MgSO4, 1.8 mM CaCl2, 4.17 mM NaHCO3, 1.19 mM Na2HPO4, 0.41 mM NaH2PO4, 15 mM HEPES, 20 mM glucose, pH 7.4) supplemented with 0.25% BSA to prepare the transport solutions (final concentration: 1 or 10 μM, final DMSO <=0.5%). The transport solution is applied to the apical or basolateral donor side for measuring A-B or B-A permeability, respectively. The receiver side contains HTP-4 buffer supplemented with 0.25% BSA. Samples are collected at the start and end of experiment from the donor and at various time intervals for up to 2 hours also from the receiver side for concentration measurement by HPLC-MS/MS. Sampled receiver volumes are replaced with fresh receiver solution. Efflux ratio is calculated dividing the Papp (b-a) values by the Papp (a-b) values.

human BCRP = target: T2, human BCRP (Homo sapiens, UniProt Q9UNQ0); experiment: MDCK assay BCRP: permeability across MDCK-BCRP monolayers; assay type: in vitro ADME; conditions: for Papp A→B: MDCK-BCRP monolayers, apical-to-basal, pH 7.4, 1 or 10 μM; for efflux ratio: pH 7.4, MDCK-BCRP, Papp (b-a) divided by Papp (a-b)
T2 construct: expressed in transfected cells; host or cells: MDCKII (Madin-Darby canine kidney) cells
T2 sequence (Q9UNQ0 1-655): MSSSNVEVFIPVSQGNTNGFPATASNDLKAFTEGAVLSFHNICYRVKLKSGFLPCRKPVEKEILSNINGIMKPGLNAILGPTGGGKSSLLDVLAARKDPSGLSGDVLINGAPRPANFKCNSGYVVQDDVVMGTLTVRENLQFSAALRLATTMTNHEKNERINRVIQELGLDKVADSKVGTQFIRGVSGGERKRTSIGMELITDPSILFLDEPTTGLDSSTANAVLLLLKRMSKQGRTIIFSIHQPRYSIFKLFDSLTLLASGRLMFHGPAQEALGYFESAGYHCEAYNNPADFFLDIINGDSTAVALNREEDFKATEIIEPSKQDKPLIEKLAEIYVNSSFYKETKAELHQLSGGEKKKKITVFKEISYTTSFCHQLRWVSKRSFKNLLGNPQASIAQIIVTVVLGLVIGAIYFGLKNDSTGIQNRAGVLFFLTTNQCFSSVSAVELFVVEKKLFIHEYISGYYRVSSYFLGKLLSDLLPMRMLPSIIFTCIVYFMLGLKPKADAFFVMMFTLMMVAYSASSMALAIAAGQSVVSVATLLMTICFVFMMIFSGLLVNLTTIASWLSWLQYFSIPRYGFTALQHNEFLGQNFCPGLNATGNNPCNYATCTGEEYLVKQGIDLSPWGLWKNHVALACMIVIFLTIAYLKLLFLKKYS
Method: as §1
as §2, with “Apparent permeability coefficients (Papp) of the compounds across the MDCK-BCRP monolayers (MDCKII cells transfected with human BCRP cDNA expression plasmid) are measured in apical-to-basal (AB) and basal-to-apical (BA) direction. MDCK-BCRP” for “MDCK-MDR1”

| SMILES | Papp A→B (human MDR1 (P-gp)) | efflux ratio (human MDR1 (P-gp)) | Papp A→B (human BCRP) | efflux ratio (human BCRP) |
| --- | --- | --- | --- | --- |
| Cc1cccc(F)c1COC(=O)N1CCO[C@H](c2nc3cccnc3[nH]2)C1 [Example 10] | 37 ×10⁻⁶ cm/s | 1.6 | 40 ×10⁻⁶ cm/s | 2.2 |
| Cc1ccc(COC(=O)N2CCO[C@H](c3nc4cccnc4[nH]3)C2)cc1F [Example 12] | 46 ×10⁻⁶ cm/s | 0.9 | 69 ×10⁻⁶ cm/s | 1 |
| O=C(OCc1ccc(F)cc1Cl)N1CCO[C@H](c2nc3cccnc3[nH]2)C1 [Example 13] | 35 ×10⁻⁶ cm/s | 1.3 | 72 ×10⁻⁶ cm/s | 0.9 |
| Cc1ccccc1COC(=O)N1CCO[C@H](c2nc3cccnc3[nH]2)C1 [Example 8] | 39 ×10⁻⁶ cm/s | 1.6 | 46 ×10⁻⁶ cm/s | 1.8 |
| O=C(OCc1cccc(F)c1)N1CCO[C@H](c2nc3cccnc3[nH]2)C1 [Example 1] | 61 ×10⁻⁶ cm/s | 0.9 | 38 ×10⁻⁶ cm/s | 2.4 |
| Cc1ccc(COC(=O)N2CCO[C@H](c3nc4cccnc4[nH]3)C2)c(F)c1 [Example 11] | 32 ×10⁻⁶ cm/s | 1.4 | 63 ×10⁻⁶ cm/s | 1 |
| O=C(OCc1ccccc1Cl)N1CCO[C@H](c2nc3cccnc3[nH]2)C1 [Example 14] | 38 ×10⁻⁶ cm/s | 1.1 | 68 ×10⁻⁶ cm/s | 1.2 |
| O=C(OCc1ccc(F)cc1)N1CCO[C@H](c2nc3cccnc3[nH]2)C1 [Example 2] | 31.5 ×10⁻⁶ cm/s | 1.7 | 34 ×10⁻⁶ cm/s | 2.9 |

The remaining lines, values ahead:

| Papp A→B (human MDR1 (P-gp)) | efflux ratio (human MDR1 (P-gp)) | Papp A→B (human BCRP) | efflux ratio (human BCRP) | SMILES |
| --- | --- | --- | --- | --- |
| 65 ×10⁻⁶ cm/s | 1.2 | 24 ×10⁻⁶ cm/s | 5.2 | O=C(OCc1ccccc1F)N1CCO[C@H](c2nc3cccnc3[nH]2)C1 [Example 27] |
| 32 ×10⁻⁶ cm/s | 2 | 24 ×10⁻⁶ cm/s | 2.7 | O=C(OCc1ccc(C(F)F)cc1)N1CCO[C@H](c2nc3cccnc3[nH]2)C1 [Example 26] |
| 41 ×10⁻⁶ cm/s | 1.2 | 49 ×10⁻⁶ cm/s | 2.1 | O=C(OCc1c(F)cccc1F)N1CCO[C@H](c2nc3cccnc3[nH]2)C1 [Example 16] |
| 37 ×10⁻⁶ cm/s | 1.3 | 53 ×10⁻⁶ cm/s | 1.2 | Cc1ccc(COC(=O)N2CCO[C@H](c3nc4cccnc4[nH]3)C2)cc1 [Example 18] |
| 18 ×10⁻⁶ cm/s | 1.8 | 85 ×10⁻⁶ cm/s | 0.7 | Cc1ccc(COC(=O)N2CCO[C@H](c3nc4cc(F)cnc4[nH]3)C2)cc1 [Example 31] |
| 40 ×10⁻⁶ cm/s | 1.3 | 37 ×10⁻⁶ cm/s | 2.5 | O=C(OCc1ccccc1)N1CCO[C@H](c2nc3cccnc3[nH]2)C1 [Example 17] |
| 42 ×10⁻⁶ cm/s | 1.1 | 56 ×10⁻⁶ cm/s | 1.2 | O=C(OCc1ccc(Cl)cc1)N1CCO[C@H](c2nc3cccnc3[nH]2)C1 [Example 28] |
| 59 ×10⁻⁶ cm/s | 1.2 | 33 ×10⁻⁶ cm/s | 2.8 | O=C(OCc1cccc(F)c1F)N1CCO[C@H](c2nc3cccnc3[nH]2)C1 [Example 15] |
| 42 ×10⁻⁶ cm/s | 1.6 | 61 ×10⁻⁶ cm/s | 1.6 | O=C(OCc1ccc(F)cc1F)N1CCO[C@H](c2nc3cccnc3[nH]2)C1 [Example 19] |
